Laboratory results: ChEMBL document CHEMBL1139388, “Crystal structure of the Homo sapiens kynureninase-3-hydroxyhippuric acid inhibitor complex: insights into the molecular basis of kynureninase substrate specificity” (J Med Chem, 2009)
Activity calls are given as the source filed them. No cut-off for these calls is given here.

Molecular target: T1, Kynureninase (Homo sapiens) (UniProt Q16719)
T1 sequence (whole entry): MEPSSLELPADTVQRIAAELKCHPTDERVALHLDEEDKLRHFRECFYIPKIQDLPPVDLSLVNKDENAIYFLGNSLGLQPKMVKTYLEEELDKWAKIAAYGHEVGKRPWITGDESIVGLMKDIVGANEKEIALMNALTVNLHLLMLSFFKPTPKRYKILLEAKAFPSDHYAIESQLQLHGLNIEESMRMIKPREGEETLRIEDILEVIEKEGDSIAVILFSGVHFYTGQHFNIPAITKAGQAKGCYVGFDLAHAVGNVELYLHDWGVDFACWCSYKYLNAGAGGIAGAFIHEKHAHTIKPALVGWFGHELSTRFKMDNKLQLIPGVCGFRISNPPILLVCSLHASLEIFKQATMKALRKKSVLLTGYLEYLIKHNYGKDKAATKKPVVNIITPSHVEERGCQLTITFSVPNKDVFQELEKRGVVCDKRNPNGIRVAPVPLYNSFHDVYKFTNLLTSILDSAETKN
Experiment: Inhibition of human kynureninase at 1 mM

Nc1c(O)cccc1C(=O)NCC(=O)O
Activity: inactive

O=C(O)CNC(=O)c1ccccc1
Activity: inactive
